Experimental data as given in patent US5110935A, “New compounds which are active against the tissue forms of malaria and method of preparation” (Ire-Celltarg, S.A., priority 1988, dated 1992).
Entries after “also recorded” stand apart in the source; their conditions may differ. Like-named read-outs stand apart in the source and are kept apart here.

Tests used:
man = conditions: human, in vivo, cited from earlier work
[1] = Stability in the presence of fetal calf serum; assay type: in vitro ADME
Procedure: The influence of serum on the stability of primaquine (PQ) and its derivatives is determined by incubating these compounds at 37° C. at a concentration of 100 μg/ml in 95% fetal calf serum (FCS, Flow Laboratories) or human serum and phosphate-buffered saline (0.15 M PBSA, pH 7.2) as a control. All the solutions are sterilized by filtration on a Millipore filter (Millex GV) of porosity 0.20 μm.
At interval of time, 1-ml samples are withdrawn and the serum proteins are then extracted from them by precipitation with acetonitrile. For this purpose, an identical volume of acetonitrile is added to each sample. After vigorous mixing in a Vortex mixer, the samples are left for 1 hour at 4° C. and protected from light and then centrifuged for 5 minutes at 12,000 g. The supernatants are collected and then analyzed by HPLC (20- to 50-μl aliquot) under the standard conditions.
The results for the stability of primaquine and its two derivatives in the presence of fetal calf serum are recorded in Table 1; the results are expressed as a % of the initial concentration (time 0) after extraction.
^a : The compounds are incubated at 37° C. in the presence of
fetal calf serum (95% final) and then analyzed by spectrophotometry after
(§1) ^b : The results represent the relative concentration of primaquine
(PQ) and of derivatives (PQX) in terms of the incubation time, expressed
as a percentage of the initial concentration (time 0) after extraction

lysosomal enzymes = test: Hydrolysis in the presence of lysosomal enzymes; assay type: in vitro ADME, rat; conditions: for Relative concentration of compound (% of initial concentration): pH 4.5, 37° C., 0 h; for Relative concentration of primaquine (PQ) from derivative: pH 4.5, 0 h
Procedure: (§2) The compounds, at a final concentration of 15 μg/ml, are incubated in 50 mM acetate buffer, pH 4.5, at 37° C. in the presence of 5 mM cysteine and a lysosomal enzyme fraction (0.15 mg protein/ml) purified from rat liver.
(§3) The purified lysosomal fraction is prepared according to the method described by Trouet (1974, Meth. Enzymol., 31, 323-334).
(§4) At intervals of time, corresponding samples are taken from the incubation. The enzyme reaction is stopped by adding 10 μl of 10M HCl per ml of sample. A volume of 20 μl is withdrawn and analyzed directly by HPLC under the standard conditions.
(§5) ^a : The compounds are incubated at pH 4.5 in the presence of
(§6) lysosomal enzymes (0.15 mg protein/ml) and 5 mM cysteine, and then
(§7) analyzed by spectrophotometry after HPLC. The initial purity of the
as §1
(§8) (PQ) and derivatives (PQX) in terms of the incubation time, expressed as
(§9) percentage of the initial concentration (time 0) after extraction.

[2] = Hydrolysis in the presence of lysosomal enzymes; assay type: in vitro ADME, rat; conditions: rat; for metabolised at 1 h: pH 4.5, 1 h; for metabolised at 2 h: pH 4.5, 2 h; for metabolised at 3 h: pH 4.5, 3 h; for metabolised at 6 h: pH 4.5, 6 h; for metabolised at 24 h: pH 4.5, 24 h
Procedure: as §2, §3, §4, §5, §6, §7, §1, §8, §9

[3] = system: persistent tissue forms of P. vivax and P. ovale; conditions: persistent tissue forms of P. vivax and P. ovale in man; cited from earlier work
human red cells = test: Hemolytic effect on human red cells; assay type: cell-based
Procedure: Two important toxic effects of PQ were assessed on the two derivatives: the hemolytic effect and the conversion of hemoglobin to methemoglobin.
A+ blood is washed twice in 0.15M phosphatebuffered saline at pH 7.4 containing 20 mM glucose (GPBS), and then resuspended at a concentration of 50% in the same buffer. To this suspension, an equal volume of compound dissolved in GPBS at different concentrations (test), or of GPBS (control) is added. The final hematocrit of the suspension is 25%. After 60 minutes' incubation at 37° C., the concentration of hemoglobin and methemoglobin is determined on the total suspension, and the concentration of hemoglobin present in the supernatant after centrifugation (extracellular hemoglobin) is determined, by the cyanmethemoglobin and benzidine methods (Fairbanks V.F., 1976, in "Fundamentals of Clinical Chemistry, M.W. Tietz Editors, Saunders").

[4] = Stability at room temperature; assay type: physicochemical; conditions: for Stability at room temp. under inert atmosphere: argon
[5] = fetal calf serum 95%, 37° C., 0 h
[6] = liver lysosomal enzymes, pH 4.5, 37° C., read-out: Relative concentration of compound (% of initial concentration)
[7] = bovine, fetal calf serum 95%, 37° C., 1 h, read-out: Relative concentration of compound (% of initial concentration)
[8] = bovine, fetal calf serum 95%, 37° C., 1 h, read-out: Relative concentration of primaquine (PQ) from derivative
[9] = bovine, fetal calf serum 95%, 37° C., 2 h, read-out: Relative concentration of compound (% of initial concentration)
[10] = bovine, fetal calf serum 95%, 37° C., 2 h, read-out: Relative concentration of primaquine (PQ) from derivative
[11] = bovine, fetal calf serum 95%, 37° C., 3 h, read-out: Relative concentration of compound (% of initial concentration)
[12] = bovine, fetal calf serum 95%, 37° C., 3 h, read-out: Relative concentration of primaquine (PQ) from derivative
[13] = bovine, fetal calf serum 95%, 37° C., 6 h, read-out: Relative concentration of compound (% of initial concentration)
[14] = bovine, fetal calf serum 95%, 37° C., 6 h, read-out: Relative concentration of primaquine (PQ) from derivative
[15] = bovine, fetal calf serum 95%, 37° C., 24 h, read-out: Relative concentration of compound (% of initial concentration)
[16] = bovine, fetal calf serum 95%, 37° C., 24 h, read-out: Relative concentration of primaquine (PQ) from derivative
[17] = liver lysosomal enzyme fraction, read-out: Relative concentration of primaquine (PQ) from derivative

SMILES | Relative concentration of compound (% of initial concentration) [1, 5] | Stability in the presence of serum ([1]; 37° C.) | Relative concentration of compound (% of initial concentration) (lysosomal enzymes) [%] | remaining at 1 h [2, 6] [%] | remaining at 2 h [2, 6] [%] | remaining at 3 h [2, 6] [%] | remaining at 6 h [2, 6] [%] | remaining at 24 h [2, 6] [%] | remaining at 1 h [1, 7] [%] | metabolised at 1 h [1, 8] [%] | remaining at 2 h [1, 9] [%] | metabolised at 2 h [1, 10] [%] | remaining at 3 h [1, 11] [%] | metabolised at 3 h [1, 12] [%] | remaining at 6 h [1, 13] [%] | metabolised at 6 h [1, 14] [%] | remaining at 24 h [1, 15] [%] | metabolised at 24 h [1, 16] [%] | Relative concentration of primaquine (PQ) from derivative [1, 5] | Relative concentration of primaquine (PQ) from derivative (lysosomal enzymes) [%] | also measured
COc1cc(NC(C)CCCN)c2ncccc2c1 (centres unmarked) [Primaquine, 6-methoxy-8-(4-amino-1-methylbutylamino)quinoline, reference compound] | 100% | unstable | 100 | 94 | 96 | 84 | 87 | 68 |  |  |  |  |  |  |  |  |  |  |  |  | Toxic effects (words) (man): destabilizes the red cell membrane, inducing a hemolysis; Toxic effects (words) (man; listed as primaquine): hemolysis; also recorded: Methemoglobinuria and gastrointestinal disorders as well as certain effects on the central nervous system; remaining at 1 h ([1]; bovine, fetal calf serum, fetal calf serum 95%, 37° C., 1 h, read-out: Relative concentration of compound (% of initial concentration)): 98%; remaining at 2 h ([1]; bovine, fetal calf serum, fetal calf serum 95%, 37° C., 2 h, read-out: Relative concentration of compound (% of initial concentration)): 87%; remaining at 3 h ([1]; bovine, fetal calf serum, fetal calf serum 95%, 37° C., 3 h, read-out: Relative concentration of compound (% of initial concentration)): 77%; remaining at 6 h ([1]; bovine, fetal calf serum, fetal calf serum 95%, 37° C., 6 h, read-out: Relative concentration of compound (% of initial concentration)): 34%; Second HPLC peak (Y) from primaquine [1, 5]: 0%; Second HPLC peak (Y) from primaquine ([1]; fetal calf serum 95%, 37° C., 1 h): 0%; Second HPLC peak (Y) from primaquine ([1]; fetal calf serum 95%, 37° C., 2 h): 5%; Second HPLC peak (Y) from primaquine ([1]; fetal calf serum 95%, 37° C., 3 h): 10%; Second HPLC peak (Y) from primaquine ([1]; fetal calf serum 95%, 37° C., 6 h): 11%; Second HPLC peak (Y) from primaquine ([1]; fetal calf serum 95%, 37° C., 24 h): 5%; Relative concentration of compound (% of initial concentration) ([1]; fetal calf serum 95%, 37° C., 24 h, 1440 min): 2%; Relative concentration of compound (% of initial concentration) ([1]; fetal calf serum 95%, 37° C., 24 h, listed as primaquine, 1440 min): 7%; Second peak (Y), maximum ([1]; fetal calf serum, after 2 hours' incubation): ≤ 10%; Clinical effectiveness [3]: clinically effective; Hemolytic effect (human red cells): concentration-dependent hemolytic effect; Hemolysis (% of total hemoglobin concentration) (human red cells; 10 mM, 1 hour, 37° C., 60 min, 10000 µM): 4.7 (1.7) %
COc1cc(NC(C)CCCNC(=O)CC[C@H](N)C(=O)O)c2ncccc2c1 (stereo partly drawn) [gGLU-PQ, N-(γ-L-glutamyl)primaquine] | 98 (1) % | a gradual decrease in the relative concentration is observed after 6 hours' incubation | 100 | 104 | 95 | 98 | 101 | 105 | 96 | 3 | 95 | 4 | 94 | 4 | 83 | 4 | 51 | 4 | 2 (1) % | 0 | Duration of stability in serum ([1]; fetal calf serum): at least 3 hours; metabolised at 1 h [2, 17]: 0%; metabolised at 2 h [2, 17]: 0%; metabolised at 3 h [2, 17]: 0%; metabolised at 6 h [2, 17]: 0%; metabolised at 24 h [2, 17]: 0%; Stability at room temp. and in the air [4]: unstable; Stability at room temp. under inert atmosphere [4]: stable
COc1cc(NC(C)CCCNC(=O)[C@@H]2CCC(=O)N2)c2ncccc2c1 (stereo partly drawn) [pGLU-PQ, N-(α-L-pyroglutamyl)primaquine] | 100% | undergoes no modification | 99 | 94 | 97 | 97 | 96 | 76 | 100 | 0 | 101 | 0 | 105 | 0 | 103 | 0 | 107 | 0 | 0% | 1 | remaining at 48 h ([1]; bovine, fetal calf serum 95%, 37° C., 48 h, read-out: Relative concentration of compound (% of initial concentration)): 87%; metabolised at 48 h ([1]; bovine, fetal calf serum 95%, 37° C., 48 h, read-out: Relative concentration of primaquine (PQ) from derivative): 0%; Onset of gradual decrease in relative concentration (lysosomal enzymes): > 6 h; metabolised at 1 h [2, 17]: 0%; metabolised at 2 h [2, 17]: 0%; metabolised at 3 h [2, 17]: 0%; metabolised at 6 h [2, 17]: 0%; metabolised at 24 h [2, 17]: 0%; metabolised at 48 h ([2]; liver lysosomal enzyme fraction, pH 4.5, 48 h, read-out: Relative concentration of primaquine (PQ) from derivative): 0%; remaining at 48 h ([2]; liver lysosomal enzymes, pH 4.5, 37° C., 48 h, read-out: Relative concentration of compound (% of initial concentration)): 47%; Stability at room temp. and in the air [4]: unstable; Stability at room temp. under inert atmosphere [4]: stable
